# The NIST ThermoML archive (doi:10.1021/je100175j)
# Numbers after ± are expanded uncertainties.
# Legend:
# [1] = Molar enthalpy of transition or fusion; conditions: Crystal; DSC
smiles,measurement,setting,value
NC(=O)c1ccccc1 [benzamide],Molar enthalpy of transition or fusion,[1],5.54 ± 0.127 kcal/mol
same,vapor or sublimation pressure,"324.11 K, Crystal, Calculated from knudsen effusion weight loss",0.000108 ± 2e-05 kPa
same,vapor or sublimation pressure,"326.19 K, Crystal, Calculated from knudsen effusion weight loss",0.000136 ± 2.1e-05 kPa
same,vapor or sublimation pressure,"328.19 K, Crystal, Calculated from knudsen effusion weight loss",0.000169 ± 2.1e-05 kPa
same,vapor or sublimation pressure,"330.1 K, Crystal, Calculated from knudsen effusion weight loss",0.000215 ± 2.1e-05 kPa
same,vapor or sublimation pressure,"332.16 K, Crystal, Calculated from knudsen effusion weight loss",0.000267 ± 2.2e-05 kPa
same,vapor or sublimation pressure,"334.18 K, Crystal, Calculated from knudsen effusion weight loss",0.000332 ± 2.3e-05 kPa
same,vapor or sublimation pressure,"336.1 K, Crystal, Calculated from knudsen effusion weight loss",0.000415 ± 2.5e-05 kPa
same,vapor or sublimation pressure,"338.17 K, Crystal, Calculated from knudsen effusion weight loss",0.000513 ± 2.7e-05 kPa
same,vapor or sublimation pressure,"340.19 K, Crystal, Calculated from knudsen effusion weight loss",0.000634 ± 3e-05 kPa
same,vapor or sublimation pressure,"342.11 K, Crystal, Calculated from knudsen effusion weight loss",0.000794 ± 3.5e-05 kPa
same,vapor or sublimation pressure,"344.18 K, Crystal, Calculated from knudsen effusion weight loss",0.000981 ± 4e-05 kPa
same,vapor or sublimation pressure,"344.8 K, Crystal, Closed cell (Static) method",0.0011 ± 0.00012 kPa
same,vapor or sublimation pressure,"346.18 K, Crystal, Calculated from knudsen effusion weight loss",0.001205 ± 9.7e-05 kPa
same,vapor or sublimation pressure,"346.78 K, Crystal, Closed cell (Static) method",0.00135 ± 0.00013 kPa
same,vapor or sublimation pressure,"348.77 K, Crystal, Closed cell (Static) method",0.00166 ± 0.00013 kPa
same,vapor or sublimation pressure,"350.76 K, Crystal, Closed cell (Static) method",0.00204 ± 0.00014 kPa
same,vapor or sublimation pressure,"352.74 K, Crystal, Closed cell (Static) method",0.00247 ± 0.00015 kPa
same,vapor or sublimation pressure,"354.72 K, Crystal, Closed cell (Static) method",0.00301 ± 0.00017 kPa
same,vapor or sublimation pressure,"356.71 K, Crystal, Closed cell (Static) method",0.00366 ± 0.00019 kPa
same,vapor or sublimation pressure,"358.69 K, Crystal, Closed cell (Static) method",0.00438 ± 0.00021 kPa
same,vapor or sublimation pressure,"360.68 K, Crystal, Closed cell (Static) method",0.00534 ± 0.00024 kPa
same,vapor or sublimation pressure,"362.68 K, Crystal, Closed cell (Static) method",0.00631 ± 0.00028 kPa
same,vapor or sublimation pressure,"364.64 K, Crystal, Closed cell (Static) method",0.00769 ± 0.00033 kPa
same,vapor or sublimation pressure,"366.62 K, Crystal, Closed cell (Static) method",0.00906 ± 0.00038 kPa
same,vapor or sublimation pressure,"368.6 K, Crystal, Closed cell (Static) method",0.01095 ± 0.00045 kPa
same,vapor or sublimation pressure,"370.59 K, Crystal, Closed cell (Static) method",0.01299 ± 0.00052 kPa
same,vapor or sublimation pressure,"372.59 K, Crystal, Closed cell (Static) method",0.01556 ± 0.00056 kPa
same,vapor or sublimation pressure,"374.55 K, Crystal, Closed cell (Static) method",0.01829 ± 0.0006 kPa
same,vapor or sublimation pressure,"376.53 K, Crystal, Closed cell (Static) method",0.02177 ± 0.00065 kPa
same,vapor or sublimation pressure,"378.52 K, Crystal, Closed cell (Static) method",0.02586 ± 0.00072 kPa
same,vapor or sublimation pressure,"380.43 K, Liquid, Closed cell (Static) method",0.04263 ± 0.00097 kPa
same,vapor or sublimation pressure,"380.48 K, Crystal, Closed cell (Static) method",0.03068 ± 0.00079 kPa
same,vapor or sublimation pressure,"382.43 K, Liquid, Closed cell (Static) method",0.0481 ± 0.0011 kPa
same,vapor or sublimation pressure,"382.47 K, Crystal, Closed cell (Static) method",0.03596 ± 0.00087 kPa
same,vapor or sublimation pressure,"384.38 K, Liquid, Closed cell (Static) method",0.05455 ± 0.0012 kPa
same,vapor or sublimation pressure,"384.44 K, Crystal, Closed cell (Static) method",0.04227 ± 0.00097 kPa
same,vapor or sublimation pressure,"386.42 K, Crystal, Closed cell (Static) method",0.04949 ± 0.0011 kPa
same,vapor or sublimation pressure,"386.56 K, Liquid, Closed cell (Static) method",0.06285 ± 0.0013 kPa
same,vapor or sublimation pressure,"388.3 K, Liquid, Closed cell (Static) method",0.0702 ± 0.0014 kPa
same,vapor or sublimation pressure,"388.4 K, Crystal, Closed cell (Static) method",0.058 ± 0.0012 kPa
same,vapor or sublimation pressure,"390.38 K, Crystal, Closed cell (Static) method",0.06796 ± 0.0014 kPa
same,vapor or sublimation pressure,"390.51 K, Liquid, Closed cell (Static) method",0.08051 ± 0.0016 kPa
same,vapor or sublimation pressure,"392.28 K, Liquid, Closed cell (Static) method",0.0897 ± 0.0017 kPa
same,vapor or sublimation pressure,"392.32 K, Crystal, Closed cell (Static) method",0.07856 ± 0.0015 kPa
same,vapor or sublimation pressure,"394.32 K, Crystal, Closed cell (Static) method",0.09224 ± 0.0017 kPa
same,vapor or sublimation pressure,"394.51 K, Liquid, Closed cell (Static) method",0.102 ± 0.0019 kPa
same,vapor or sublimation pressure,"396.37 K, Liquid, Closed cell (Static) method",0.1144 ± 0.0021 kPa
same,vapor or sublimation pressure,"398.34 K, Liquid, Closed cell (Static) method",0.129 ± 0.0023 kPa
same,vapor or sublimation pressure,"400.4 K, Liquid, Closed cell (Static) method",0.1453 ± 0.0021 kPa
same,vapor or sublimation pressure,"402.25 K, Liquid, Closed cell (Static) method",0.1597 ± 0.0023 kPa
same,vapor or sublimation pressure,"404.42 K, Liquid, Closed cell (Static) method",0.1805 ± 0.0024 kPa
same,vapor or sublimation pressure,"406.32 K, Liquid, Closed cell (Static) method",0.1992 ± 0.0026 kPa
same,vapor or sublimation pressure,"408.4 K, Liquid, Closed cell (Static) method",0.2257 ± 0.0028 kPa
same,vapor or sublimation pressure,"410.17 K, Liquid, Closed cell (Static) method",0.2479 ± 0.003 kPa
same,vapor or sublimation pressure,"412.21 K, Liquid, Closed cell (Static) method",0.279 ± 0.0032 kPa
same,vapor or sublimation pressure,"414.31 K, Liquid, Closed cell (Static) method",0.3088 ± 0.0035 kPa
same,vapor or sublimation pressure,"416.23 K, Liquid, Closed cell (Static) method",0.3462 ± 0.0038 kPa
same,vapor or sublimation pressure,"418.37 K, Liquid, Closed cell (Static) method",0.3819 ± 0.0041 kPa
same,vapor or sublimation pressure,"420.28 K, Liquid, Closed cell (Static) method",0.4246 ± 0.0045 kPa
same,vapor or sublimation pressure,"422.2 K, Liquid, Closed cell (Static) method",0.4667 ± 0.0048 kPa
same,vapor or sublimation pressure,"424.23 K, Liquid, Closed cell (Static) method",0.5208 ± 0.0053 kPa
same,vapor or sublimation pressure,"426.18 K, Liquid, Closed cell (Static) method",0.5676 ± 0.0057 kPa
same,vapor or sublimation pressure,"428.17 K, Liquid, Closed cell (Static) method",0.6262 ± 0.0062 kPa
same,vapor or sublimation pressure,"430.15 K, Liquid, Closed cell (Static) method",0.6836 ± 0.0067 kPa
same,vapor or sublimation pressure,"432.17 K, Liquid, Closed cell (Static) method",0.7596 ± 0.0074 kPa
same,vapor or sublimation pressure,"434.17 K, Liquid, Closed cell (Static) method",0.8264 ± 0.008 kPa
same,vapor or sublimation pressure,"436.2 K, Liquid, Closed cell (Static) method",0.922 ± 0.0088 kPa
same,vapor or sublimation pressure,"438.2 K, Liquid, Closed cell (Static) method",1.002 ± 0.009 kPa
same,Triple point temperature,"Crystal, DTA",401.34 ± 0.49 K
